Assays:
[1] = target: T1, full-length B-Catenin (Uniprot ID P35222) (Homo sapiens, UniProt P35222); assay: Alphascreen binding assay (beta-catenin / biotin-TCF4 10-53)
T1 construct: 65 nM full-length B-Catenin (Uniprot ID P35222)
T1 sequence (P35222 1-781): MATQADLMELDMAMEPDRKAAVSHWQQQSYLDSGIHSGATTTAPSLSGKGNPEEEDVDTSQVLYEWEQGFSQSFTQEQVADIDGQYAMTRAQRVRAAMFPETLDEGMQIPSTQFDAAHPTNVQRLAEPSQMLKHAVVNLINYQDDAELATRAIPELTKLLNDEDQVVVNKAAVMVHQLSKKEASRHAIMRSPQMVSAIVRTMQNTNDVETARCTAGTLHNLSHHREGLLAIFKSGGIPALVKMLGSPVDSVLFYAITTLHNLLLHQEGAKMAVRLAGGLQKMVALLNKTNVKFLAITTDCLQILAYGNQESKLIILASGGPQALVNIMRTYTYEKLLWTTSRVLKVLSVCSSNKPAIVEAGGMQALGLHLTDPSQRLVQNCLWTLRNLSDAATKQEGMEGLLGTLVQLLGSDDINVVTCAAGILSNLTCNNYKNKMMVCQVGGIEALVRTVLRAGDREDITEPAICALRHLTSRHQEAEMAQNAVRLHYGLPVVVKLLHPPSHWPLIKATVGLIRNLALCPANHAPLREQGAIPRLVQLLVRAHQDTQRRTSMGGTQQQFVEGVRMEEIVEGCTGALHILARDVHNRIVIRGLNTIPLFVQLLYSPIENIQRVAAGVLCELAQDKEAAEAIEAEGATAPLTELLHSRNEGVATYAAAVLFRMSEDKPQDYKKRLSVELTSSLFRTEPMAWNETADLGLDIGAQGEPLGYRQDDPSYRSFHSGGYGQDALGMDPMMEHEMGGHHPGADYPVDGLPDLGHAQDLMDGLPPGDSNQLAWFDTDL
Protocol: In some embodiments, an assay is an Alphascreen binding assay. A useful protocol is described below as an example.
Alphascreen binding assay: Using the AlphaScreen Histidine (Nickel Chelate) Detection Kit (PerkinElmer), peptide solutions were prepared in buffer (50 mM Tris pH 8.0, 250 mM NaCl, 2% glycerol, 0.03% Tween-20, 0.01% TritonX-100, 0.1% BSA w/v) using a 3-fold serial dilution from 10 uM to 5 nM. Probe solution (65 nM full-length B-Catenin (Uniprot ID P35222), mixed with 10 nM biotin labeled TCF4 residues 10-53 (Uniprot ID Q9NQB0) peptide in buffer) was prepared and 4 uL per well was plated in a white polystyrene 384-well plate (Corning). Equal volume of the titrated peptide was added to the plate and incubated for 15 minutes at 20° C. Then 4 uL of donor and 4 uL acceptor beads at 10 ug/mL were added to the plate, for a 16 uL reaction pool and protected from light for 60 minutes at 20° C. prior to read. Reads were performed on a CLARIOstar plate reader (BMG Labtech) in duplicate, and data were fitted to a 1:1 binding model with hill slope using an in-house script. All provided concentrations are final concentrations.

[2] = CHI Log D procedure; type: physicochemical; settings: for CHI Log D: pH 7.4

| Compound | EC50 [1] [µM] | CHI Log D [2] | chromatographic logD ([2]; pH 7.4, CHI Log D) |
| --- | --- | --- | --- |
| COc1cccc(C[C@@H]2NC(=O)[C@H](C)NC(=O)[C@H](C)NC(=O)[C@H](CC(=O)O)NC(=O)[C@H](CC(=O)O)NC(=O)[C@](C)(NC(=O)[C@H](C)NC(=O)[C@H](CC(=O)O)NC(=O)[C@H](Cc3ccccc3)NC(C)=O)CCCCCCC=CCOC(=O)N3CC[C@@](C(=O)N[C@@H](Cc4ccccc4)C(=O)N[C@@H](Cc4c[nH]c5ccccc45)C(=O)N[C@@H](CCC(N)=O)C(N)=O)(C3)NC(=O)[C@H](C(C)C)NC2=O)c1 [I-104, Ac-Phe-Asp-Ala-R8-Asp-Asp-Ala-Ala-3OMeF-Val-PyrS-Phe-Trp-Gln-NH2] | 6.17 | 1.333 |  |
| CC(=O)N[C@@H](Cc1ccccc1)C(=O)N[C@@H](CC(=O)O)C(=O)N[C@@H](C)C(=O)N[C@]1(C)CCCCCCC=CCOC(=O)N2CC[C@@](C(=O)N[C@@H](Cc3ccccc3)C(=O)N[C@@H](Cc3c[nH]c4ccccc34)C(=O)N[C@@H](CCC(N)=O)C(N)=O)(C2)NC(=O)[C@H](C(C)C)NC(=O)[C@H](Cc2cccc(C(N)=O)c2)NC(=O)[C@H](C)NC(=O)[C@H](C)NC(=O)[C@H](CC(=O)O)NC(=O)[C@H](CC(=O)O)NC1=O [I-109, Ac-Phe-Asp-Ala-R8-Asp-Asp-Ala-Ala-3CBMF-Val-PyrS-Phe-Trp-Gln-NH2] | 8.82 | 1.223 |  |
| CC(=O)N[C@@H](Cc1ccccc1)C(=O)N[C@@H](CC(=O)O)C(=O)N[C@@H](C)C(=O)N[C@]1(C)CCCCCCC=CCOC(=O)N2CC[C@@](C(=O)N[C@@H](Cc3ccc(C(=O)O)cc3)C(=O)N[C@@H](Cc3c[nH]c4ccccc34)C(=O)N[C@@H](CCC(N)=O)C(N)=O)(C2)NC(=O)[C@H](C(C)C)NC(=O)[C@H](Cc2ccccc2)NC(=O)[C@H](C)NC(=O)[C@H](C)NC(=O)[C@H](CC(=O)O)NC(=O)[C@H](CC(=O)O)NC1=O [I-110, Ac-Phe-Asp-Ala-R8-Asp-Asp-Ala-Ala-Phe-Val-PyrS-4COOHF-Trp-Gln-NH2] | 8.5 | 0.769 |  |
| CC(=O)N[C@@H](Cc1ccccc1)C(=O)N[C@@H](CC(=O)O)C(=O)N[C@@H](C)C(=O)N[C@]1(C)CCCCCCC=CCOC(=O)N2CC[C@@](C(=O)N[C@@H](Cc3ccc(C(=O)O)cc3)C(=O)N[C@@H](Cc3c[nH]c4ccccc34)C(=O)N[C@@H](CCC(N)=O)C(N)=O)(C2)NC(=O)[C@H](C(C)C)NC(=O)[C@H](Cc2ccccc2)NC(=O)[C@H](C)NC(=O)[C@H](C)NC(=O)[C@H](CC(=O)O)NC(=O)[C@H](CC(=O)O)NC1=O [I-111, Ac-Phe-Asp-Ala-R8-Asp-Asp-Ala-Ala-Phe-Val-PyrS-4COOHF-Trp-Gln-NH2] | 7.64 | 0.779 |  |
| CC(=O)N[C@@H](Cc1ccccc1)C(=O)N[C@@H](CC(=O)O)C(=O)N[C@@H](C)C(=O)N[C@]1(C)CCCCCCC=CCOC(=O)N2CC[C@@](C(=O)N[C@@H](Cc3ccccc3)C(=O)N[C@@H](Cc3c[nH]c4ccccc34)C(=O)N[C@@H](CCC(N)=O)C(N)=O)(C2)NC(=O)[C@H](C(C)C)NC(=O)[C@H](Cc2ccc3ccccc3c2)NC(=O)[C@H](C)NC(=O)[C@H](C)NC(=O)[C@H](CC(=O)O)NC(=O)[C@H](CC(=O)O)NC1=O [I-113, Ac-Phe-Asp-Ala-R8-Asp-Asp-Ala-Ala-2NapA-Val-PyrS-Phe-Trp-Gln-NH2] | 6.2 | 1.435 |  |
| CC(=O)N[C@@H](Cc1ccccc1)C(=O)N[C@@H](CC(=O)O)C(=O)N[C@@H](C)C(=O)N[C@]1(C)CCCCCCC=CCOC(=O)N2CC[C@@](C(=O)N[C@@H](Cc3ccccc3)C(=O)N[C@@H](Cc3c[nH]c4ccccc34)C(=O)N[C@@H](CCC(N)=O)C(N)=O)(C2)NC(=O)[C@H](C(C)C)NC(=O)[C@H](CCc2ccc(O)cc2)NC(=O)[C@H](C)NC(=O)[C@H](C)NC(=O)[C@H](CC(=O)O)NC(=O)[C@H](CC(=O)O)NC1=O [I-119, Ac-Phe-Asp-Ala-R8-Asp-Asp-Ala-Ala-hTyr-Val-PyrS-Phe-Trp-Gln-NH2] | 4.94 | 1.17 |  |
| CC(=O)N1CCC[C@]12CC=CCCCC1(CCCC=CCCCCCC[C@@](C)(C(=O)N[C@@H](Cc3ccccc3)C(=O)N[C@@H](Cc3c[nH]c4ccccc34)C(=O)N[C@@H](CCC(N)=O)C(N)=O)NC(=O)[C@H](C(C)C)NC(=O)[C@H](Cc3ccccc3)NC(=O)[C@H](C)NC(=O)[C@H](C)NC(=O)[C@H](CC(N)=O)NC(=O)[C@H](CC(=O)O)NC1=O)NC(=O)[C@H](C)NC(=O)[C@H](CC(=O)O)NC2=O (stereo partly drawn) [I-124, Ac-PL3-Asp-Ala-B5-Asp-Asn-Ala-Ala-Phe-Val-S8-Phe-Trp-Gln-NH2] | 1.28 | 2.252 |  |

Next, values leading:

| EC50 [1] [µM] | CHI Log D [2] | chromatographic logD ([2]; pH 7.4, CHI Log D) | Compound |
| --- | --- | --- | --- |
| 1.48 | 2.239 |  | CC(=O)N1CCC[C@]12CC=CCCCC1(CCCC=CCCCCCC[C@@](C)(C(=O)N[C@@H](Cc3ccccc3)C(=O)N[C@@H](Cc3c[nH]c4ccccc34)C(=O)N[C@@H](CCC(N)=O)C(N)=O)NC(=O)[C@H](C(C)C)NC(=O)[C@H](Cc3ccccc3)NC(=O)[C@H](C)NC(=O)[C@H](C)NC(=O)[C@H](CCC(N)=O)NC(=O)[C@H](CC(=O)O)NC1=O)NC(=O)[C@H](C)NC(=O)[C@H](CC(=O)O)NC2=O (stereo partly drawn) [I-126, Ac-PL3-Asp-Ala-B5-Asp-Gln-Ala-Ala-Phe-Val-S8-Phe-Trp-Gln-NH2] |
| 0.797 | 1.346 |  | CC(=O)N1CCC[C@]12CC=CCCCC1(CCCC=CCOC(=O)N(C)CCC[C@@](C)(C(=O)N[C@@H](Cc3ccccc3)C(=O)N[C@@H](Cc3c[nH]c4ccccc34)C(=O)N[C@@H](CCC(N)=O)C(N)=O)NC(=O)[C@H](C(C)C)NC(=O)[C@H](Cc3ccccc3)NC(=O)[C@H](C)NC(=O)[C@H](C)NC(=O)[C@H](CCC(=O)O)NC(=O)[C@H](CC(=O)O)NC1=O)NC(=O)[C@H](C)NC(=O)[C@H](CC(=O)O)NC2=O (stereo partly drawn) [I-130, Ac-PL3-Asp-Ala-B5-Asp-Glu-Ala-Ala-Phe-Val-SeN-Phe-Trp-Gln-NH2] |
| 0.495 | 2.383 |  | CC(=O)N1CCC[C@]12CC=CCCCC1(CCCC=CCCCCCC[C@@](C)(C(=O)N[C@@H](Cc3ccccc3)C(=O)N[C@@H](Cc3c[nH]c4ccccc34)C(=O)NC(C)(C)C(N)=O)NC(=O)[C@H](C(C)C)NC(=O)[C@H](Cc3ccccc3)NC(=O)[C@H](C)NC(=O)[C@H](C)NC(=O)[C@H](CCC(=O)O)NC(=O)[C@H](CC(=O)O)NC1=O)NC(=O)[C@H](C)NC(=O)[C@H](CC(=O)O)NC2=O (stereo partly drawn) [I-133, Ac-PL3-Asp-Ala-B5-Asp-Glu-Ala-Ala-Phe-Val-S8-Phe-Trp-Aib-NH2] |
| 3.3 | 2.136 |  | CC(=O)N1CCC[C@]12CC=CCCCC1(CCCC=CCCCCCC[C@@](C)(C(=O)N[C@@H](Cc3ccccc3)C(=O)N[C@@](C)(Cc3c[nH]c4ccccc34)C(=O)N[C@@H](CCC(N)=O)C(N)=O)NC(=O)[C@H](C(C)C)NC(=O)[C@H](Cc3ccccc3)NC(=O)[C@H](C)NC(=O)[C@H](C)NC(=O)[C@H](CCC(=O)O)NC(=O)[C@H](CC(=O)O)NC1=O)NC(=O)[C@H](C)NC(=O)[C@H](CC(=O)O)NC2=O (stereo partly drawn) [I-136, Ac-PL3-Asp-Ala-B5-Asp-Glu-Ala-Ala-Phe-Val-S8-Phe-aMeW-Gln-NH2] |
| 5.45 |  | 2.43 | CC(=O)N1CCC[C@]12CC=CCCCC1(CCCC=CCCCCCC[C@@](C)(C(=O)N[C@@H](Cc3ccccc3)C(=O)N[C@@H](Cc3ccc4ccccc4c3)C(N)=O)NC(=O)[C@H](C(C)C)NC(=O)[C@H](Cc3ccccc3)NC(=O)[C@H](C)NC(=O)[C@H](C)NC(=O)[C@H](CCC(=O)O)NC(=O)[C@H](CC(=O)O)NC1=O)NC(=O)[C@H](C)NC(=O)[C@H](CC(=O)O)NC2=O (stereo partly drawn) [I-141, Ac-PL3-Asp-Ala-B5-Asp-Glu-Ala-Ala-Phe-Val-S8-Phe-2NapA-NH2] |

From patent publication US20240116985A1, “STAPLED PEPTIDES AND METHODS THEREOF” (priority 2020, published 2024)
